Measurements from patent EP0247482A2, “Hardened reagent coatings, and processes for the preparation thereof” (priority 1986, dated 1987).

Tested on: casein
Conditions: pH 7
Method: A 10 % strength casein solution is prepared in water by adding sodium hydroxide solution. 0.1 g of tartrazine is added to 100 ml of solution as filter dyestuff. Before pouring, various samples of the solution of 3 % by weight of each of the compounds 22, 19, 20, 21, 24, 25, 30, 31, 37, 41, 44, 45, 50, 52, 53, 55 and 56, dissolved in water, are added at a pH of 7.

Row | Compound | hardened filter foils, solubility in alkaline water after drying
1 | NC(=O)c1ccc[n+](C(=O)N2CCOCC2)c1 [Compound 19] | no longer dissolve in alkaline water
2 | O=C(N1CCOCC1)[n+]1cccc(S(=O)(=O)[O-])c1 [Compound 45] | no longer dissolve in alkaline water
3 | CCN(CC)C(=O)[n+]1ccc(CCS(=O)(=O)[O-])cc1 [Compound 50] | no longer dissolve in alkaline water
4 | Cc1ccc(N(C)C(=O)[n+]2ccc(CCS(=O)(=O)[O-])cc2)cc1 [Compound 52] | no longer dissolve in alkaline water
5 | O=C(N1CCCCC1)[n+]1ccc(CCS(=O)(=O)[O-])cc1 [Compound 53] | no longer dissolve in alkaline water
6 | O=C(N1CCOCC1)[n+]1ccc(CCS(=O)(=O)[O-])cc1 [Compound 55] | no longer dissolve in alkaline water
7 | O=C(N1CCOCC1)[n+]1cccc(CCS(=O)(=O)[O-])c1 [Compound 56] | no longer dissolve in alkaline water
